{"source": "patent US11980596B2", "about": "(priority 2017, dated 2024)", "key": {"[1]": {"system": "adult subjects with TRD", "conditions": "post dose", "description": "Blood pressure and pulse/heart rate measurements were assessed supine with a completely automated device. Manual techniques were used only if an automated device is not available. Blood pressure and pulse/heart rate measurements were preceded by at least 5 minutes of rest in a quiet setting without distractions (e.g., television, cell phones).\nDescriptive statistics of temperature, pulse/heart rate, respiratory rate, pulse oximetry, and blood pressure (systolic and diastolic) (supine) values and changes from baseline were summarized at each scheduled time point. The percentage of subjects with values beyond clinically important limits were summarized."}, "[2]": {"system": "subjects with MDD at imminent risk for suicide", "assay": "SIBAT clinical global judgment of suicide risk ([…]2001)", "format": "in vivo, human", "excerpt": "The clinical global judgment of suicide risk (Module 8) summarizes clinician overall judgment of suicide risk as derived from information gathered from the full SIBAT tool. It operates like numerous other CGI-severity scales that have been used in other psychiatric studies. Change in the clinical global judgment of suicide risk is designed to directly identify clinical meaningful changes in suicidal ideation and to permit classification of suicide risk.\nThe analysis of the change in SIBAT score was based on an ANCOVA model on ranks of change in SIBAT with treatment, antidepressant therapy, and analysis center as factors, and baseline value (unranked) as a covariate. There was a significant difference (two-sided […]) between the two treatment groups when comparing the mean rank of change from baseline at Day 1: 4-hours postdose in favor of esketamine 84 mg See, Table 58. See, FIG. 39. […] This difference was not evident at the Day 25 DB endpoint. See, FIG. 40, which is based on LOCF data and analyzed using Cochran-Mantel-Haenszel test controlling for analysis center and antidepressant therapy."}, "[3]": {"system": "subjects with MDD at imminent risk for suicide", "assay": "Beck Hopelessness Scale (BHS) ([…]2001)", "format": "in vivo, human", "conditions": "for BHS total score: change vs placebo: 84 mg", "excerpt": "The BHS is a self-reported measure to assess one's level of negative expectations or pessimism regarding the future. It consists of 20 true-false items that examine the respondent's attitude over the past week by either endorsing a pessimistic statement or denying an optimistic statement. For every statement, each response is assigned a score of 0 or 1. The total BHS score is a sum of item responses and ranges from 0 to 20, with a higher score representing a higher level of hopelessness."}, "[4]": {"assay": "Pharmacokinetics of esketamine nasal spray, 14 Phase 1 studies (Example 10)", "conditions": "young adult subjects", "procedure": "The data herein was assembled from 14 Phase 1 studies; each Phase 1 study was performed similarly to the study outlined in Example 9 in which the PK of esketamine was assessed."}, "[5]": {"system": "adult subjects with TRD", "conditions": "post dose", "remark": "listed apart in the source", "description": "The MOAA/S was used to measure treatment-emergent sedation, with correlation to levels of sedation defined by the American Society of Anesthesiologists (ASA) continuum. The MOAA/S scores range from 0=no response to painful stimulus (corresponds to ASA continuum for general anesthesia) to 5=readily responds to name spoken in normal tone (awake; corresponds to ASA continuum for minimal sedation).\nOn each intranasal dosing day, the MOAA/S was performed every 15 minutes from pre-dose to t=+1.5 hours post-dose. If the score was ≤3 at any time during the 1.5 hours post-dose interval, the MOAA/S was performed every 5 minutes until a score of 4 is reached (at which point a frequency of every 15 minutes can be resumed until t=+1.5 hours post dose). […] For subjects with a score of 4, the assessment was repeated every 15 minutes. […]\nThe Modified Observer's Assessment of Alertness/Sedation (MOAA/S) was used to measure treatment-emergent sedation with correlation to levels of sedation defined by the American Society of Anesthesiologists (ASA) continuum. The MOAA/S scores ranged from 0 (No response to painful stimulus; corresponds to ASA continuum for general anesthesia) to 5 (Readily responds to name spoken in normal tone [awake]; corresponding to ASA continuum for minimal sedation)."}, "[6]": {"system": "subjects with TRD", "conditions": "IND or OP/MA phases; among the 76 subjects", "quoted_text": "The efficacy and safety analyses are based on the full (IND) analysis set and the full (OP/MA) analysis set. The full (IND) analysis set is defined as all subjects who receive at least 1 dose of intranasal study medication or 1 dose of oral antidepressant in the open-label IND phase (for direct-entry and transferred-entry non-responder subjects). The full (OP/MA) analysis is defined as all subjects who receive at least 1 dose of intranasal study medication or 1 dose of oral antidepressant in the OP/MA phase. Safety variables include cognition function over time, treatment-emergent adverse events (TEAEs), including TEAEs of special interest, vital signs over time, Clinician-Administered Dissociative Symptom Scale (CADDS) over time, and Modified Observer's Assessment of Alertness/Sedation (MOAA/S) score≤3."}, "[7]": {"system": "subjects with MDD at imminent risk for suicide", "format": "in vivo, human", "conditions": "post dose", "procedure": "Transient blood pressure increases peaked for the esketamine group at approximately 40 minutes post dose with the maximum mean increases (across all dosing days) in systolic BP being 8.7 in the placebo group and 16.7 in the esketamine 84 mg group. The maximum mean increases (across all dosing days) in diastolic BP were 7.6 in the placebo group and 11.9 in the esketamine 84 mg group. […] See, FIGS. 46 and 47."}, "[8]": {"system": "CYP2B6 and CYP3A4 and to a lesser extent CYP2C9 and CYP2C19", "assay": "Metabolism by cytochrome P450 enzymes", "conditions": "human"}, "[9]": {"system": "glutamate NMDA receptor", "conditions": "cited from earlier work"}, "[10]": {"system": "subjects with MDD at imminent risk for suicide", "assay": "Study completion/withdrawal, double-blind phase ([…]2001)", "format": "in vivo, human", "conditions": "esketamine 84 mg; all randomized analysis set, N = 36", "procedure": "Of the 68 subjects in the all randomized analysis set, 19 (27.9%) subjects discontinued from the double-blind phase. More subjects in the esketamine 84 mg group discontinued due to adverse events (5 subjects in the esketamine 84 mg group versus 1 subject in the placebo group) whereas more subjects in the placebo group discontinued due to lack of efficacy (4 subjects in the placebo group versus 1 subject in the esketamine 84 mg group)."}, "[11]": {"system": "patients with TRD", "assay": "Adverse reactions in SPRAVATO clinical trials (label)", "format": "in vivo, human", "conditions": "up to 4 weeks after cessation of treatment", "procedure": "SPRAVATO was evaluated for safety in 1709 patients diagnosed with treatment resistant depression (TRD) [see Clinical Studies (14.1, 14.2)] from five Phase 3 studies (3 short-term and 2 long-term studies) and one Phase 2 dose-ranging study. Of all SPRAVATO-treated patients in the completed Phase 3 studies, 479 (30%) received at least 6 months of treatment, and 178 (11%) received at least 12 months of treatment.\nIn short-term studies in adults<65 years old (Study 1 pooled with another 4-week study), the proportion of patients who discontinued treatment because of an adverse reaction was 4.6% in patients who received SPRAVATO plus oral AD compared to 1.4% for patients who received placebo nasal spray plus oral AD. For adults 65 years old, the proportions were 5.6% and 3.1%, respectively. In Study 2, a long-term maintenance study, the discontinuation rates because of an adverse reaction were similar for patients receiving SPRAVATO plus oral AD and placebo nasal spray plus oral AD in the maintenance phase, at 2.6% and 2.1%, respectively.\nSPRAVATO can cause nausea and vomiting (Table 7). Most of these events occurred on the day of dosing and resolved the same day, with the median duration not exceeding 1 hour in most subjects across dosing sessions. […]"}, "[12]": {"conditions": "esketamine 84 mg, LOCF, ITT, N = 35"}, "[13]": {"conditions": "esketamine 84 mg, LOCF, ITT, N = 35, negative change = improvement"}, "[14]": {"conditions": "esketamine 84 mg, predose Day 1, ITT, N = 35"}, "[15]": {"conditions": "esketamine 84 mg minus placebo, ANCOVA LOCF"}}, "data": [{"smiles": "CN[C@]1(c2ccccc2Cl)CCCCC1=O", "note": "[esketamine, (S)-2-(2-chlorophenyl)-2-(methylamino)cyclohexanone]", "values": [{"measurement": "Blood pressure returned to normal range at", "setting": "[1]", "value": 90, "unit": "min"}, {"measurement": "Time of peak of transient blood pressure increases", "setting": "[1]", "value": "approximately 40 minutes"}, {"measurement": "SIBAT Clinical Global Judgment of Suicide Risk: change vs placebo", "setting": "[2]; 84 mg, Day 1: 4-hours postdose and Day 2", "value": "statistically superior"}, {"measurement": "SIBAT Clinical Global Judgment of Suicide Risk, Day 1 (DB): 4H, Median (Range)", "setting": "[2]; esketamine 84 mg, LOCF, ITT, N = 33", "value": "5.0 (0; 6)"}, {"measurement": "SIBAT Clinical Global Judgment of Suicide Risk, Change from Baseline to Day 1 (DB): 4H, Median (Range)", "setting": "[2]; esketamine 84 mg, LOCF, ITT, N = 33, negative change = improvement", "value": "0.0 (−6; 1)"}, {"measurement": "SIBAT Clinical Global Judgment of Suicide Risk, Day 2 (DB), Median (Range)", "setting": "[2]; [12]", "value": "5.0 (0; 6)"}, {"measurement": "SIBAT Clinical Global Judgment of Suicide Risk, Change from Baseline to Day 2 (DB), Median (Range)", "setting": "[2]; [13]", "value": "−1.0 (−6; 1)"}, {"measurement": "SIBAT Clinical Global Judgment of Suicide Risk, Baseline (DB), Median (Range)", "setting": "[2]; [14]", "value": "6.0 (5; 6)"}, {"measurement": "BHS total score: change vs placebo", "setting": "[3]; Day 1: 4-hours postdose", "value": "no statistically significant difference"}, {"measurement": "BHS total score: change vs placebo", "setting": "[3]; End Point (DB)", "value": "statistically superior"}, {"measurement": "BHS total score, change to Day 1 (DB): 4H, Diff. of LS Means (SE)", "setting": "[3]; [15]", "value": "−1.5 (1.47)"}, {"measurement": "BHS total score, change to End Point (DB), Diff. of LS Means (SE)", "setting": "[3]; [15]", "value": "−2.3 (1.66)"}, {"measurement": "BHS total score, Day 1 (DB): 4H, Median (Range)", "setting": "[3]; [12]", "value": "14.0 (0; 20)"}, {"measurement": "BHS total score, End Point (DB), Mean (SD)", "setting": "[3]; [12]", "value": "6.2 (5.96)"}, {"measurement": "BHS total score, End Point (DB), Median (Range)", "setting": "[3]; [12]", "value": "4.0 (0; 20)"}, {"measurement": "BHS total score, Change from Baseline to Day 1 (DB): 4H, Mean (SD)", "setting": "[3]; [13]", "value": "−4.1 (5.63)"}, {"measurement": "BHS total score, Change from Baseline to Day 1 (DB): 4H, Median (Range)", "setting": "[3]; [13]", "value": "−2.0 (−16; 2)"}, {"measurement": "BHS total score, Change from Baseline to End Point (DB), Median (Range)", "setting": "[3]; [13]", "value": "−11.0 (−19; 0)"}, {"measurement": "BHS total score, Baseline (DB), Median (Range)", "setting": "[3]; [14]", "value": "17.0 (9; 20)"}, {"measurement": "Tmax, range of median values", "setting": "[4]; single dose esketamine nasal spray 28 mg, n = 64", "value": "19.8 to 40.2", "unit": "min"}, {"measurement": "Tmax, range of median values", "setting": "[4]; single dose esketamine nasal spray 56 mg, n = 86", "value": "30 to 46.2", "unit": "min"}, {"measurement": "Tmax, range of median values", "setting": "[4]; single dose esketamine nasal spray 84 mg, n = 167", "value": "31.8 to 49.8", "unit": "min"}, {"measurement": "Sedation (MOAA/S) resolved by", "setting": "[5]", "value": "≤ 1.5", "unit": "h"}, {"measurement": "Subjects with an AE leading to discontinuation of intranasal esketamine considered related to esketamine", "setting": "[6]", "value": 51, "unit": "subjects"}, {"measurement": "Blood pressure returning to normal range by", "setting": "[7]", "value": "≤ 2", "unit": "h"}, {"measurement": "Metabolic pathway", "setting": "[8]", "value": "primarily metabolized to noresketamine metabolite via cytochrome P450 (CYP) enzymes CYP2B6 and CYP3A4"}, {"measurement": "Affinity for the glutamate NMDA receptor in vitro, fold greater than R-ketamine", "setting": "[9]", "value": "3 to 4", "unit": "fold"}, {"measurement": "Withdrawn from double-blind phase: Lack of Efficacy", "setting": "[10]", "value": "1 (2.8%) subjects (%)"}, {"measurement": "Withdrawal symptoms", "setting": "[11]", "value": "no withdrawal symptoms"}]}]}
